Test system: C57BL/6 female mice bearing allogeneic pregnancy sired by Balb/c males
Experiment: Fetal wastage and in utero Lm invasion after virulent Lm (strain 10403s) prenatal infection, allogeneic pregnancy
Assay type: in vivo
Settings: virulent Lm 10^4 CFU, ampicillin in drinking water

CC1(C)S[C@@H]2[C@H](NC(=O)[C@H](N)c3ccccc3)C(=O)N2[C@H]1C(=O)O [ampicillin]
benefits (protection against fetal wastage) (treatment delayed until 24 hours post-infection): uniformly dissipated
protection against fetal wastage (treatment initiated 12 hours after infection): near complete protection

— patent US20180022810A1, “USE OF CXCR3 INHIBITORS FOR PROTECTING AGAINST FETAL WASTAGE” (Children's Hospital Medical Center, priority 2015, published 2018)
